# Assay results taken from patent publication US11369607B2, “Compositions, systems, and methods for generating inner ear hair cells for treatment of hearing loss” (Massachusetts Institute of Technology, priority 2014, dated 2022).
# Entries after “also recorded” stand apart in the source; their conditions may differ.
# Experiments:
# [1] = tested on: Lgr5+ supporting cells isolated from the cochlea; test: Expansion of Lgr5-GFP inner ear progenitor cells in Matrigel based 3D culture; assay type: cell-based, mouse; details: for Lgr5-GFP expression, effect of addition / cell proliferation, effect of addition: neonatal Lgr5 inner ear progenitor cells; for use in place of VPA: data not shown; for importance of the factor for cell proliferation / importance of the factor for Lgr5-GFP expression: factor removed from the culture medium; for GFP+ cell number / total number of cells / GFP+ percentage: named factor removed from EFICVP6, 10 days
# Method: Cell culture: Heterozygous Lgr5-EGFP-IRES-CreERT2 mice were obtained from Jackson Labs, and neonatal P2-P5 mice were used for cell isolation. Organ of Corti was isolated from Lgr5-GFP mice and further dissociated into single cells using trypsin. Cells were then cultured as previously described (Yin et al, 2014). Briefly, cells were entrapped in Matrigel and plated at the center of wells in a 24-well plate. Following polymerization of Matrigel, 500 μl of culture media (Advanced DMEM/F12 with N2 and B27) was added, containing growth factors including EGF (50 ng/ml) (epidermal growth factor), bFGF (20 ng/ml) (fibroblast growth factor), and IGF1 (50 ng/ml) (insulin-like growth factor 1), and small molecules including CHIR99021 (5 μM), valproic acid (1 mM), 2-phospho-L-ascorbic acid (280 μM), and 616452 (2 μM). Y-27632 (10 μM) was added for the first 2 days. In some experiments, bFGF was used at 50 ng/ml.
# For single cell isolation, the organs of Corti were then treated with Cell Recovery Solution (Corning) for 1 h to separate cochlear epithelium from the underlying mesenchyme. Epithelia were then collected and treated with Trypsin (Life Technologies) for 15-20 minutes at 37° C. Single cells obtained by mechanical trituration were filtered by cell strainer (40 μm) and washed with cell culture media. For FACS sorting of Lgr5-high and Lgr5-Low cells, FACS ARIA (BD) was used and Lgr5-GFP was used as indicator of Lgr5 level. Sorted single cells were cultured in Matrigel in inner ear cell culture media with supplement growth factors and small molecules. Y-27632 was added in the first 2 days.
# FACS analysis: Cell culture media was removed and Trypsin was added. After incubation at 37° C. for 10-20 min, colonies were dissociated into single cells. Live-cell number were counted using a hemocytometer and trypan blue staining. The cells were then stained with propidium iodide (PI) and analyzed with flow cytometry. The number of GFP-positive cells was calculated by multiplying the total number of cells by the percentage of GFP-positive cells.
# patients = details: cited from earlier work
# [2] = tested on: expanded Lgr5-positive cells; test: Differentiation of expanded Lgr5-positive cells to hair cells; assay type: cell-based, mouse; details: for effect on differentiation of hair cells: in differentiation media
# Method: Differentiation protocol: For differentiation of expanded Lgr5-positive cells, following 10 days of culture in the cell expansion condition (EFICVP6), the cell colonies were transferred to fresh Matrigel and further cultured in differentiation media. Differentiation media contains Notch pathway inhibitor (e.g. DAPT, D, 5 μM, or LY411575, LY, 5 μM), with or without Gsk3β inhibitor (e.g. CHIR99021). Media were changed every other day. Following another 6-10 days of incubation with differentiation media, the colonies were harvested for qPCR analysis or fixed with 4% PFA and immunostained with hair cell markers Myo7a and Prestin.
# RNA extraction and quantitative real-time PCR (qPCR): RNA was isolated from cultured cells (RNeasy Mini Kit; Qiagen) according to the manufacturer's protocol. Quantitative real-time PCR was performed with QuantiTect Probe PCR kit (Qiagen) using commercially available primers and TaqMan probes (Myo7a and Hprt Life Technologies).
# Immunocytochemistry staining: Colonies were fixed at room temperature in 4% paraformaldehyde/PBS for 15-20 min and then washed twice with PBS containing 0.1% BSA. Cells were then permeabilized with 0.25% Triton X-100 in PBS in 4° C. for 30 minutes. Following 2 washes with PBS containing 0.1% BSA, the cells were incubated with blocking solution (Power Block, Biogenex) for 1 h. Diluted primary antibodies (in Power Block solution) was applied for 4 h at room temperature or overnight at 4° C. Primary antibodies used were Myosin VIIA (1:500, Rabbit polyclonal from Proteus Biosciences) and Prestin (1:400, Goat polyclonal from Santa Cruz). After 3 washes for 5 minutes each, secondary antibodies (Alexafluor 594 and 647-conjugated; Invitrogen) were added at 1:500 dilution and incubated at room temperature for 30 minutes. Nuclei were visualized with 4,6-diamidino-2-phenylindole (DAPI, Vector Laboratories). Staining was visualized with inverted fluorescence microscope (EVOS; Advanced Microscopy Group).
# [3] = named factor removed, versus EFICVP6
compound,measurement,setting,value
Nc1ncnc2c1c(I)cn2[C@@H]1O[C@H](CO)[C@@H](O)[C@H]1O [5IT],"Lgr5-GFP expression, effect of addition",[1],does not promote the expression of Lgr5-GFP
O=C(CCCCCCNC(=O)c1cnc(N(c2ccccc2)c2ccccc2)nc1)NO [ACY1215],use in place of VPA,[1],does not work
Cc1cc(N2CCOCC2)cc2[nH]c(-c3c(NC[C@@H](O)c4cccc(Cl)c4)cc[nH]c3=O)nc12 [BMS536924],"Lgr5-GFP expression, effect of addition",[1],does not promote the expression of Lgr5-GFP
CC(C)(C)OC(=O)Nc1ccc(-c2cc(C(=O)NCCCCCCC(=O)NO)no2)cc1 [CAY10603],use in place of VPA,[1],does not work
N.N.[Cl][Pt][Cl] [Cisplatin],high frequency hearing loss (>8 kHZ),"patients; human, in vivo",≤ 90%
Cc1ccc2nc(NC(=O)CSc3nc4c(c(=O)n3-c3ccccc3)SCC4)sc2c1 [IWP-2],hair cell generation (Myosin VIIA and Prestin staining),[2]; 10 days of differentiation,hair cell generation is rarely observed from cultured inner ear progenitor cells
Cc1cc(NC(=O)c2cccc(NC(=O)/C=C/CN(C)C)c2)ccc1Nc1nccc(-c2cccnc2)n1 [JNK-IN8],"Lgr5-GFP expression, effect of addition",[1],does not promote the expression of Lgr5-GFP
c1ccc2c(-c3cnn4cc(-c5ccc(N6CCNCC6)cc5)cnc34)ccnc2c1 [LDN193189],"Lgr5-GFP expression, effect of addition",[1],does not promote the expression of Lgr5-GFP; also recorded: greatly decreased Lgr5-GFP expression
O=C(NOC[C@H](O)CO)c1ccc(F)c(F)c1Nc1ccc(I)cc1F [PD0325901],"Lgr5-GFP expression, effect of addition",[1],does not promote the expression of Lgr5-GFP
CNC(=O)c1ccc(C)c(-n2c(C)cc(OCc3ccc(F)cc3F)c(Br)c2=O)c1 [PH797804],"Lgr5-GFP expression, effect of addition",[1],does not promote the expression of Lgr5-GFP
CO[C@@H]1[C@H](N(C)C(=O)c2ccccc2)C[C@H]2O[C@]1(C)n1c3ccccc3c3c4c(c5c6ccccc6n2c5c31)C(=O)NC4 [PKC412],"Lgr5-GFP expression, effect of addition",[1],does not promote the expression of Lgr5-GFP
CCOC(=O)C1=C(N)Oc2ccc(Cl)cc2C1C(C#N)C(=O)OCC (stereo not shown) [SC79],"Lgr5-GFP expression, effect of addition",[1],does not promote the expression of Lgr5-GFP
C[C@@H]1CCN(C(=O)CC#N)C[C@@H]1N(C)c1ncnc2[nH]ccc12 [Tofacitinib],"Lgr5-GFP expression, effect of addition",[1],does not promote the expression of Lgr5-GFP
CN1CCc2c(c3ccccc3n2Cc2ccc(C(=O)NO)cc2)C1 [Tubastatin A],use in place of VPA,[1],does not work
O=c1ncn2nc(Sc3ccc(F)cc3F)ccc2c1-c1c(Cl)cccc1Cl [VX745],"Lgr5-GFP expression, effect of addition",[1],does not promote the expression of Lgr5-GFP
"Cc1cccc(-c2n[nH]cc2-c2ccc3ncccc3n2)n1 [compound 616452, 2-(3-(6-Methylpyridin-2-yl)-1H-pyrazol-4-yl)-1,5 napththyridine]",passage / extended culture of the cells,[1],enables the passage of cultured inner ear progenitor cells; also recorded: enables extended culture of the cells
same,passage of colonies,[1],up to 5 generations
same,colony size and GFP intensity,[1]; added on EFICVP,increases the intensity of Lgr5-GFP and the size of colonies; also recorded: tend to grow larger and possess brighter GFP expression than that in control conditions
same,importance of the factor for cell proliferation,[1],greater impact on cell proliferation; also recorded: significant reduction in proliferation; also recorded: important to promote cell proliferation
same,GFP+ cell number,[1],9.8×10^4 cells
same,total number of cells,[1],1.7×10^5 cells
same,decrease of GFP+ cell number,[1]; [3],~3 fold
same,decrease of total cell number,[1]; [3],~3 fold
same,"Lgr5-GFP expression, effect of addition",[1],does not promote the expression of Lgr5-GFP; also recorded: didn't increase Lgr5-GFP expression
same,"cell proliferation, effect of addition",[1],promotes the proliferation of Lgr5 inner ear progenitor cells
same,effect on differentiation of hair cells,[2],inhibit the differentiation of hair cells
[H]/N=C(/N)N[C@H]1[C@H](O)[C@@H](O)[C@H](O[C@@H]2O[C@@H](C)[C@](O)(C=O)[C@H]2O[C@@H]2O[C@@H](CO)[C@H](O)[C@@H](O)[C@@H]2NC)[C@@H](N/C(N)=N\[H])[C@@H]1O [streptomycin],incidence of vestibular impairment,patients; 1 gram per day,25%
same,patients with some vestibular impairment,patients; 2 grams daily for 60 to 120 days,~75%
"EGF: epidermal growth factor (NSDSECPLSHDGYCLHDGVCMYIEALDKYACNCVVGYIGERCQYRDLKWWELR; UniProt P01133 971-1023, looked up)",importance of the factor for Lgr5-GFP expression,[1],less important for GFP expression
same,importance of the factor for cell proliferation,[1],important for cell proliferation; also recorded: greater impact on cell proliferation; also recorded: significant reduction in proliferation; also recorded: important to promote cell proliferation
same,decrease of GFP+ cell number,[1]; [3],~2 fold
same,decrease of total cell number,[1]; [3],~2 fold
same,effect on differentiation of hair cells,[2],inhibit the differentiation of hair cells
IGF-1: insulin like growth factor 1,importance of the factor for Lgr5-GFP expression,[1],marginal effect on cell proliferation or GFP maintenance
same,importance of the factor for cell proliferation,[1],marginal effect on cell proliferation or GFP maintenance; also recorded: marginal effect to promote cell proliferation
same,importance of the factor for Lgr5-GFP expression,[1]; listed as IGF,marginal beneficial effect in promoting cell proliferation and GFP expression
same,importance of the factor for cell proliferation,[1]; listed as IGF,marginal beneficial effect in promoting cell proliferation and GFP expression
same,importance of the factor for Lgr5-GFP expression,[1]; listed as IGF1,marginal beneficial effect on cell proliferation and Lgr5 expression
same,importance of the factor for cell proliferation,[1]; listed as IGF1,marginal beneficial effect on cell proliferation and Lgr5 expression
same,GFP+ percentage,[1],53%
same,total number of cells,[1],4.1×10^5 cells
same,effect on differentiation of hair cells,[2],inhibit the differentiation of hair cells
Laminin 511: added into Matrigel,"Lgr5-GFP expression, effect of addition",[1],promotes GFP expression
bFGF: basic fibroblast growth factor,importance of the factor for Lgr5-GFP expression,[1],less important for GFP expression; also recorded: important for GFP expression
same,importance of the factor for cell proliferation,[1],important for cell proliferation; also recorded: greatly impacted cell proliferation; also recorded: greatest effect on proliferation; also recorded: important to promote cell proliferation
same,GFP+ cell number,[1],1.4×10^4 cells
same,GFP+ percentage,[1],32%
same,decrease of GFP+ cell number,[1]; [3],20 fold
same,decrease of GFP+ percentage,[1]; [3],~2 fold
same,decrease of total cell number,[1]; [3],10 fold
same,"cell proliferation, effect of addition",[1],promotes the proliferation of Lgr5 inner ear progenitor cells; also recorded: increased cell proliferation
same,effect on differentiation of hair cells,[2],inhibit the differentiation of hair cells
